Test results as given in patent US10106532B2, “Inhibitors of beta-hydroxylase for treatment of cancer” (MIDWESTERN UNIVERSITY, priority 2012, dated 2018).
Entries after “also recorded” stand apart in the source; their conditions may differ. Values belong to the compound of their own block, whether it stands above or below them.

How the values were obtained:
FOCUS cells [1] = assay: invasion assay using matrigel coated membrane; assay type: cell-based, human; settings: 6 hours, compared to DMSO control
Method: (§1) The β-hydroxylase activity is required for ASPH to mediate its effects on cell motility. Directional motility was measured using Boyden chamber-type culture inserts equipped with porous membranes. FOCUS cells were pretreated with 5 μM of MO-1-1100 and MO-1-500 β-hydroxylase inhibitor for 24 hours, and then placed into the upper chamber. Migration was allowed to proceed for 30 min. ATPLite was used to quantify viable cell density. The cells in the upper well and upper surface of membrane reflects the number of non-migrating cells, luminescence measured at the bottom surface of the membrane reflects the number of migrating and non-adherent cells and luminescence measured in the bottom well was reflect migrating and non-adherent cells. […] Cell invasiveness was assessed by invasion assay using matrigel coated membrane, in which cells were allowed to proceed for 6 hours; those found adhered on the bottom surface of membrane were regarded as invading cells.

FOCUS HCC cells = assay: colony formation assay; assay type: cell-based, human; settings: 1.25 μM
Method: (§2) A MTT assay was performed to evaluate the effect of MO-1-1100 on cell proliferation and viability. MTT is reduced to purple formazan in living cells. FOCUS cells were used as a high ASPH expressing human HCC cell line. […] The MTT assay measures cellular metabolic activity via NAD(P)H-dependent cellular oxidoreductase enzymes. […] In order to evaluate the effect of long-term exposure of MO-1-1100, the colony formation assay (an assay of malignant potential and phenotype) in which cells were treated with inhibitor for 3 weeks was performed.

NIH-3T3 cells = assay: MTT assay (cell proliferation, metabolic activity); assay type: cell-based, mouse
Method: as §2

FOCUS cells [2] = assay: MTT assay (cell proliferation, metabolic activity); assay type: cell-based, human; settings: micromolar concentrations
Method: as §2

FOCUS cells [3] = assay: directional motility, Boyden chamber-type culture inserts; assay type: cell-based, human; settings: 5 μM pretreatment for 24 hours, migration 30 min
Method: as §1

ASPH [4] = biological target: T1, ASPH (Homo sapiens, UniProt Q12797); assay: high throughput 14CO2 capture enzymatic assay for ASPH β-hydroxylase activity (ASPH mAb capture from lysates of treated FOCUS cells); assay type: biochemical; parameters: endogenous in cells; host or cells: FOCUS cells (human hepatocellular carcinoma line)
T1 sequence (Q12797 1-758): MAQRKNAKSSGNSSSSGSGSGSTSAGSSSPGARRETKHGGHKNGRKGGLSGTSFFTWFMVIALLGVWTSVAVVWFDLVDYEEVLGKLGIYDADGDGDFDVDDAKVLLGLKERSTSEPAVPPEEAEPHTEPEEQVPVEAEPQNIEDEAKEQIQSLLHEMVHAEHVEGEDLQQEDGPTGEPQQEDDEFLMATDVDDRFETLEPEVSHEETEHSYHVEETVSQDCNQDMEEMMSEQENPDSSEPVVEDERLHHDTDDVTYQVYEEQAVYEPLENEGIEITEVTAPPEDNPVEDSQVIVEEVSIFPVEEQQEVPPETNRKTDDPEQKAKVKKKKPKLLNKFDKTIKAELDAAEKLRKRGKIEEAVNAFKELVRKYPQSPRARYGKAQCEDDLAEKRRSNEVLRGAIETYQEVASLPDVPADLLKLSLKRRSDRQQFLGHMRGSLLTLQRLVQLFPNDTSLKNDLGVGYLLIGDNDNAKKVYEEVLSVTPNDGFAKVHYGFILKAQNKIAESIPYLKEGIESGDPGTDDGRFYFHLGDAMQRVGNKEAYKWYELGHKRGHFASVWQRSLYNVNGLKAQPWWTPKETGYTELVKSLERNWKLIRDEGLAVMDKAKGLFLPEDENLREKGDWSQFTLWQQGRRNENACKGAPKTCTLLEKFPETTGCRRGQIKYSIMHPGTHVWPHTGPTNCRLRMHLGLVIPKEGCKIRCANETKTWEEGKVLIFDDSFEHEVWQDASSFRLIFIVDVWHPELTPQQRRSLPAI
Method: In yet another aspect, the disclosure provides a method determining ASPH activity by contacting an EGF-like domain peptide with a detectably-labeled α-ketoglutarate and ASPH enzyme and measuring β-hydroxylase activity. In one embodiment, said α-ketoglutarate is ^14C-labelled, and wherein β-hydroxylase activity is measured by detecting liberated ^14CO2. In one embodiment, said liberated ^14CO2 is captured on a filter and radioactivity quantified. […] In one embodiment, said EGF-like domain comprises the amino acid sequence of […] (SEQ ID NO:1). In one embodiment, said EGF-like domain peptide comprises the consensus sequence of CDXXXCXXKXGNGXCDXXCNNAACXXDGXDC (SEQ ID NO: 2).
FIG. 3A is a diagram of the biochemical reaction catalyzed by ASPH derived from PC cell lysates. FIG. 3B is a cartoon illustrating the read-out to quantify ASPH activity in PC cells and tumors. FIG. 3C is an image of membrane was obtained by a phosphor-imager after a 16 hour exposure of the trapping filter to a phospho-screen. FIG. 3D is a bar graph showing intensities were calculated by Image J software and compared to a DMSO control. Vertical bars represent standard deviation. These figures show methods of measurement and data relating to ASPH catalytic activity.
EGF and EGF-like domains are well known in the art and generally include six cysteine residues which have been shown (in EGF) to be involved in disulfide bonds. The main structure is a two-stranded beta-sheet followed by a loop to a C-terminal short two-stranded sheet. Subdomains between the conserved cysteines vary in length. Examples include those described in Davis, C G, 1990, New Biol. 2(5):410-9; Blomquist et al., 1984, Proc Natl Acad Sci USA. 81(23):7363-7; Hommel et al., […], J Mol Biol. 227(1):271-82; Doolittle et al., 1984, Nature. 307(5951):558-60; Appella et al., 1988, FEBS Lett. 231(1):1-4; Sorkin A., 2001, Biochem Soc Trans. August; 29(Pt 4):480-4; each of which is hereby incorporated by reference). FIGS. 3A-C represents the strategy for development and characterization of the performance of an assay to measure ASPH enzymatic activity. FIG. 3A describes the biochemical reaction catalyzed by ASPH. FIG. 3B depicts the read-out of the assay. Protein lysates were extracted from FOCUS cells (high level of ASPH cell surface expression) treated with 1-10 μM of each parent compound for 24 hours. The lysates were added into 96 well-plates coated with ASPH monoclonal antibodies (mAbs) to add an antigen specific (ASPH) capture step to the assay design. After incubation and washing, only ASPH is captured on each well. The reaction is carried out with 60 μM of an EGF domain containing 39AA peptide, 100 μM FeCl2 and 40 μM ^14C labeled α-ketoglutarate were added into each well. The ^14CO2 was captured on a glass fiber membrane soaked in Ca(OH)2. […] The compound was further characterized for clinical use as an anti-tumor agent for PC and HCC and other ASPH-expressing tumors.

FOCUS cells [5] = assay: anchorage independent growth in soft agar; assay type: cell-based, human
Method: The effect of MO-1-1100 on anchorage independent growth in soft agar was evaluated. The ability of forming colonosphere in soft agar is considered to be a rigid test for tumorigenic potential. ASPH expression results in cells acquiring the ability to form colonospheres in soft agar. […] In order to evaluate the effect of ASPH inhibitor for anchorage independent colony formation, FOCUS cells were incubated in soft agar with or without this ASPH enzymatic inhibitor. After 3 weeks incubation, MO-1-1100 reduced colonosphere formation of FOCUS cells (FIG. 9A). […] This assay is a standard method to monitor malignant growth that reflects the ability to form tumors that grow aggressively in vivo.

ASPH [6] = biological target: T1, ASPH; assay: binding to ASPH by isothermal titration calorimetry
From the text: In the second step arylhydroxytetronimide was sulfonylated with phenylmethansulfonyl chloride in dry tetrahydrofuran to yield compounds of formula 1 (shown below). Compounds were characterized by 1H and 13C nuclear magnetic resonance, high resolution mass spectroscopy, high performance liquid chromatography, infra-red spectroscopy, melting point, elemental analysis and binding to ASPH by isothermal titration calorimetry.
Candidate parent compounds were selected as inhibitors for β-hydroxylase activity based on crystal structure of the catalytic site in the C-terminal region of ASPH and computer assisted drug design.

melting point: 190 to 195 °C
Structure (SMILES): NC1=C(OS(=O)(=O)c2ccccc2)C(=O)C(c2ccc(Cl)cc2)O1 (centres unmarked) [Compound 7c, 2-(4-chlorophenyl)-4-[[phenylsulfonyl]oxy]-5-amino-3(2H)-furanone]

melting point: 221 to 222 °C
Structure (SMILES): NC1=C(O)C(=O)C(c2ccc(Cl)cc2)O1 (centres unmarked) [Example 1c, 5-amino-4-hydroxy-2-(4-chlorophenyl)-furan-3-one]

melting point: 160 to 163 °C
Structure (SMILES): NC1=C(O)C(=O)C(c2ccccc2F)O1 (centres unmarked) [Example 1j, 5-amino-4-hydroxy-2-(2-fluorophenyl)-furan-3-one]

melting point: 168 °C
Structure (SMILES): NC1=C(O)C(=O)C(c2cccc(F)c2)O1 (centres unmarked) [Example 1k, 5-amino-4-hydroxy-2-(3-fluorophenyl)-furan-3-one]

melting point: 193 °C
Structure (SMILES): NC1=C(O)C(=O)C(c2cccc(F)c2F)O1 (centres unmarked) [Example 1m, 5-amino-4-hydroxy-2-(2,3-difluorophenyl)-furan-3-one]

melting point: 182 to 183 °C
Structure (SMILES): NC1=C(O)C(=O)C(c2ccc(F)cc2F)O1 (centres unmarked) [Example 1n, 5-amino-4-hydroxy-2-(2,4-difluorophenyl)-furan-3-one]

melting point: 196 °C
Structure (SMILES): NC1=C(O)C(=O)C(c2cc(F)ccc2F)O1 (centres unmarked) [Example 1o, 5-amino-4-hydroxy-2-(2,5-difluorophenyl)-furan-3-one]

melting point: 159 to 160 °C
Structure (SMILES): NC1=C(O)C(=O)C(c2c(F)cccc2F)O1 (centres unmarked) [Example 1p, 5-amino-4-hydroxy-2-(2,6-difluorophenyl)-furan-3-one]

melting point: 190 to 194 °C
Structure (SMILES): NC1=C(O)C(=O)C(c2ccc(F)c(F)c2)O1 (centres unmarked) [Example 1q, 5-amino-4-hydroxy-2-(3,4-difluorophenyl)-furan-3-one]

melting point: 190 to 191 °C
Structure (SMILES): NC1=C(O)C(=O)C(c2cc(F)cc(F)c2)O1 (centres unmarked) [Example 1r, 5-amino-4-hydroxy-2-(3,5-difluorophenyl)-furan-3-one]

Structure (SMILES): CC(=O)OC1=C(N)OC(c2ccc(Cl)cc2)C1=O (centres unmarked) [Example 2c, 2-(4-chlorophenyl)-4-(acetoxy)-5-amino-3(2H)-furanone]
melting point: 221 to 222 °C

identified as hits (screening for inhibition of β-hydroxylase activity) (ASPH [4]): identified as hits
ASPH enzymatic activity (ASPH [4]; 5 μM): inhibited
ASPH enzymatic inhibitory activity (β-hydroxylase) (ASPH [4]; concentration not given): inhibit
ASPH binding (ASPH [6]): confirmed to demonstrate ASPH binding
Structure (SMILES): CCS(=O)(=O)Nc1oc(-c2ccc(Cl)cc2)c(O)c1O [MO-1-500]
invasiveness (FOCUS cells [1]): pronounced effect
colony formation (FOCUS HCC cells): substantial inhibitory effects; also recorded: strikingly inhibits
specificity for the β-hydroxylase activity of ASPH (NIH-3T3 cells; FOCUS (express ASPH) versus NIH-3T3 (do not express ASPH)): not specific for ASPH
cell proliferation and metabolic activity (NIH-3T3 cells; NIH-3T3 cells, micromolar concentrations): striking affects; also recorded: growth inhibited
cell proliferation and metabolic activity (FOCUS cells [2]): striking affects; also recorded: growth inhibited
cell migration / motility (FOCUS cells [3]): pronounced effect
number of colonies formed and colony size in soft agar (FOCUS cells [5]; 1 μM): dramatically reduced
number and size of FOCUS cell colonies in soft agar (FOCUS cells [5]; 0.5, 1, and 5 μM): striking reduction
